Assay results published in patent US6362212B1, “Oxime derivative and bactericide containing the same as active ingredient” (Shionogi & Company, Ltd., priority 1994, dated 2002).

Tests used:
Assay type in all cases: in vivo
[1] = test system: Puccinia coronata; test: Controlling effect on Puccinia coronata by foliage application (pot experiment); details: foliage spray on oat (cv. PC-38) seedlings, infected area after 1 day moist chamber and 8 days greenhouse at 20° C.
Method in brief: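 Oat seedlings (cv. PC-38, 2–3 weeks old) were sprayed with compound in DMF diluted with spreader-containing water, then inoculated 24 h later with P. coronata spores diluted in talc. Plants were held 1 day in a moist chamber at 20° C, then 8 days in a greenhouse at 20° C; percent control came from infected leaf area.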

[2] = test system: Pyricularia oryzae; details: foliage spray on rice seedlings (cv. […]), number of lesions six days after the inoculation
[3] = test system: Botrytis cinerea; test: Controlling effect on Botrytis cinerea by foliage application (pot experiment); details: foliage spray on cucumber (cv. TSUKUBASHIROIBO) first leaves, mycelial disks, lesion diameter after 3 days in moist chamber at 20° C.
Method: The following Test Examples illustrate the effects of the fungicide of the present invention. (I. Controlling effects on various plant diseases by foliage application (pot experiment)) A test compound was dissolved in a small amount of N,N-dimethylformamide, and the solution was diluted to a given concentration with distilled water containing a spreader. Thus, a liquid sample to be tested was prepared. The liquid sample was sprayed to test plants, and 24 hours thereafter, pathogens were inoculated by the method described below. […] The seeds of cucumber ([…]) were sown in plastic cups (each 9 cm in diameter), followed by cultivation for 2 to 3 weeks. The test compound in the form of a solution or suspension was sprayed to the surface of their first leaves, and mycelial disks (4 mm φ) of Botrytis cinerea cultured on the potato sucrose agar medium were put on the leaf surfaces to inoculate. the cucumber seedlings with the pathogen. The plants were kept in a moist chamber at 20° C. for 3 days. The diameter of the lesions on the leaves was measured and the percent control was calculated.

[4] = test system: Sphaerotheca fuliginea; test: Controlling effect on Sphaerotheca fuliginea by foliage application (pot experiment); details: foliage spray on cucumber (cv. TSUKUBASHIROIBO) first leaves, infected area after 10 days in greenhouse at 20° C.
Method in brief: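 First leaves of cucumber seedlings, 2-3 weeks old, were sprayed with compound (DMF solution diluted in water with spreader). They were inoculated 24 h later with a Sphaerotheca fuliginea conidia spray and kept 10 days at 20° C in a greenhouse. Percent control was calculated from infected leaf area.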

[5] = test system: Erysiphe graminis f. sp. tritici; test: Controlling effect on Erysiphe graminis f. sp. tritici by foliage application (pot experiment); details: foliage spray on wheat (cv. NORIN No. 61) seedlings, infected area after 10 days in greenhouse at 20° C.
Method in brief: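 Wheat seedlings (cv. NORIN No. 61, 2-3 weeks old) sprayed with compound in DMF diluted in water with spreader, then inoculated with conidia 24 hours later. Kept in greenhouse at 20 °C for 10 days; percent control calculated from infected leaf area.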

[6] = test system: Pseudoperonospora cubensis; test: Controlling effect on Pseudoperonospora cubensis by foliage application (pot experiment); details: foliage spray on cucumber (var. TSUKUBASHIROIBO) first leaves, lesion area after 10 days in moist chamber at 20° C.
Method in brief: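 Cucumber plants grown 2–3 weeks were sprayed on first leaves with compound (DMF solution diluted in water with spreader); 24 h later, Pseudoperonospora cubensis zoosporangia suspension dropped on leaves. Plants held in moist chamber at 20° C for 10 days; lesion area observed and percent control calculated.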

| Compound | Controllng effect on Puccinia coronata by foliage application at 500 ppm (percent control) [1] | Controlling effect on PYricularia orYzae by foliage application at 500 ppm (percent control) [2] | Controlling effect on Botrytis cinerea by foliage application at 500 ppm (percent control) [3] | Controlling effect on Sphaerotheca fuliginea by foliage application at 500 ppm (percent control) [4] | Controlling effect on ErYsiphe graminis f. sp. tritici by foliage application at 500 ppm (percent control) [5] | Controlling effect on Pseudoperonospora cubensis by foliage application at 500 ppm (percent control) [6] | pest or weed control at 500 ppm ([4]; Podosphaera fuliginea, in Cucumis sativus, foliar, 240 h, read-out: Controlling effect on Sphaerotheca fuliginea by foliage application at 500 ppm (percent control)) | pest or weed control at 500 ppm ([5]; Blumeria graminis, foliar, 240 h, read-out: Controlling effect on ErYsiphe graminis f. sp. tritici by foliage application at 500 ppm (percent control)) |
| --- | --- | --- | --- | --- | --- | --- | --- | --- |
| CON=C(c1ccccc1COc1ccccc1Cl)n1cncc1C [compound 205] | 70 percent control | 90 percent control | 70 percent control | 100 percent control | – | – | – | – |
| CON=C(c1ccccc1COc1ccccc1Cl)n1ccnc1 [Compound No. 5] | 90 percent control | 97 percent control | 70 percent control | 100 percent control | 90 percent control | – | – | – |
| C=CCON=C(c1ccccc1COc1ccccc1)n1ccnc1 [Compound No. 81] | 97 percent control | 97 percent control | 90 percent control | – | 97 percent control | – | – | – |
| CON=C(c1ccccc1COc1c(C)cccc1C)n1ccnc1 [compound 40] | 70 percent control | 90 percent control | 70 percent control | 100 percent control | 97 percent control | – | – | – |
| CON=C(c1ccccc1COc1cccc(Cl)c1)n1cncc1C [compound 206] | 97 percent control | 90 percent control | 97 percent control | 100 percent control | 90 percent control | – | – | – |
| CON=C(c1ccccc1COc1ccccc1)n1cncc1C [compound 201] | 90 percent control | 90 percent control | 70 percent control | 100 percent control | 90 percent control | – | – | – |
| CON=C(c1ccccc1COc1ccc(Cl)cc1)n1cncc1C [compound 207] | 97 percent control | 90 percent control | 100 percent control | 100 percent control | 100 percent control | – | – | – |
| CON=C(c1ccccc1COc1ccccc1)n1ccnc1 [Compound No. 1] | 97 percent control | 90 percent control | 100 percent control | 100 percent control | 90 percent control | – | – | – |
| CON=C(c1cc(C)no1)c1ccccc1COc1ccccc1Cl (single isomer, unassigned) [605A] | – | 90 percent control | 70 percent control | 100 percent control | 90 percent control | 100 percent control | – | – |
| OC(c1ccc(Cl)cc1)(c1cncnc1)c1ccccc1Cl (stereo not shown) [Fenarimol, reference compound] | 97 percent control | – | 97 percent control | – | – | – | 97% | 97% |
| CON=C(c1nnco1)c1ccccc1COc1ccc(Cl)c(Cl)c1 [compound 732] | – | 70 percent control | 70 percent control | 100 percent control | 70 percent control | 100 percent control | – | – |
| CON=C(c1ccon1)c1ccccc1COc1ccc(C)cc1 (mixture of isomers) [compound 314] | – | 90 percent control | 70 percent control | 100 percent control | 70 percent control | 100 percent control | – | – |
| CON=C(c1ccccc1COc1ccc(Cl)c(Cl)c1)c1nccn1C (single isomer, unassigned) [132A] | – | 70 percent control | 70 percent control | 100 percent control | 70 percent control | 100 percent control | – | – |
| CON=C(c1ccccc1COc1cccc(C(F)(F)F)c1)c1nccn1C (single isomer, unassigned) [122A] | – | 97 percent control | 70 percent control | 100 percent control | 97 percent control | 100 percent control | – | – |
| CON=C(c1ccccc1COc1cccc(Cl)c1)c1nccn1C (single isomer, unassigned) [106A] | – | 97 percent control | 70 percent control | 100 percent control | 70 percent control | 100 percent control | – | – |
| CCON=C(c1ccccc1COc1ccccc1)n1ccnc1 [Compound No. 61] | 97 percent control | 97 percent control | 100 percent control | – | 97 percent control | – | – | – |
